“And” between values parts separate entries of the source, which are not always exact repeats. Equal entries are not always repeated. The source made the active and inactive calls. No rule for the calls is given here.

This assay concerns the target glucose-6-phosphate dehydrogenase-6-phosphogluconolactonase (Plasmodium falciparum 3D7). Briefly: PfG6PD enzyme inhibitors, kinetic NADPH readout, SAR follow-up, orthogonal assay, biochemical, kinetic NADPH detection (AID 588593). The note with it: recombinant PfG6PD-6PGL.
What is called IC50 is the midpoint of a concentration-inhibition curve. As to `CCN1CCC[C@@H]1CNC(=O)c1ccc2c(c1)NC(=O)/C(=C/c1ccccc1F)S2`, the IC50 was 30.8 µM. As for `Cc1ccccc1C(=O)Nc1nnc(S(=O)(=O)N2CCCCCC2)s1`, the IC50 is 11.6 µM. Then `CCN(CC)CCNC(=O)c1ccc2c(c1)N(Cc1cc(C)ccc1C)C(=O)c1ccccc1S2`, with > 80 µM (inactive). Then `CCCN(CCC)CCNC(=O)c1ccc2c(c1)NC(=O)/C(=C/c1ccccc1)S2`, with 27.2 µM; and `O=C(Nc1nnc(S(=O)(=O)N2CCCc3ccccc32)s1)c1cccc(F)c1`, with 15.9 µM.

On to `CCN1CCCC1CNC(=O)c1ccc2c(c1)N(Cc1ccccc1Cl)C(=O)c1ccccc1S2` (configuration not stated), for which the IC50 was > 80 µM (inactive). Then `CCN1CCCC1CNC(=O)c1ccc2c(c1)NC(=O)/C(=C/c1ccccc1C)S2` (configuration not stated), with 5.01 µM; and `CCN(CC)CCNC(=O)c1ccc2c(c1)NC(=O)c1ccccc1O2`, with 62.3 µM.

Regarding `O=C1Nc2cc(C(=O)NCCN3CCCC3)ccc2S/C1=C/c1ccccc1Cl`, the IC50 was > 80 µM (inactive). Consider `O=C(Nc1nnc(S(=O)(=O)N2CCOCC2)s1)c1cccc(F)c1`, for which the IC50 is 51.9 µM. Then `CCCN(CCC)CCNC(=O)c1ccc2c(c1)NC(=O)/C(=C\c1ccc(C)cc1)S2`, with 45.9 µM.

For the compound `CN(C)CCNC(=O)c1ccc2c(c1)NC(=O)c1ccccc1O2`, the IC50 was > 80 µM (inactive).

Regarding `CN1CCN(C(=O)c2ccc3c(c2)NC(=O)/C(=C/c2ccccc2Cl)S3)CC1`, the IC50 is > 80 µM (inactive). For the compound `COc1ccc(C(=O)Nc2nnc(S(=O)(=O)N3CCCCCC3)s2)cc1OC`, the IC50 is 5.48 µM.

On to `CN(C)CCNC(=O)c1ccc2c(c1)NC(=O)CO2`, for which the IC50 is > 80 µM (inactive).

`CCN(CCNC(=O)c1ccc2c(c1)N(CC)C(=O)c1ccccc1S2)c1ccccc1`: the IC50 is 44.6 µM.

Turning to `CN1CCCC1CCNC(=O)c1ccc2c(c1)NC(=O)/C(=C/c1ccccc1F)S2` (configuration not stated), the half-maximal inhibitory concentration (IC50) was 45.2 µM. Regarding `O=C(Nc1nnc(S(=O)(=O)N2CCCCC2)s1)c1cccc(F)c1`, the IC50 is 34 µM. Then `CCN(CCNC(=O)c1ccc2c(c1)NC(=O)c1ccccc1S2)c1ccccc1`, with > 80 µM (inactive). As to `O=C(Nc1nnc(S(=O)(=O)N2CCCCCC2)s1)C1CCCCC1`, the IC50 is 38.5 µM. In the case of `O=C(Nc1nnc(S(=O)(=O)N2CCCCCC2)s1)c1ccccc1F`, the IC50 was 35.2 µM. Then `Cc1cccc(C(=O)Nc2nnc(S(=O)(=O)N3CCCCCC3)s2)c1`, with 5.79 µM. As for `CCN1CCCC1CNC(=O)c1ccc2c(c1)NC(=O)/C(=C/c1ccccc1OC)S2` (configuration not stated), the IC50 is 11.3 µM. Then `O=C(Nc1nnc(S(=O)(=O)N2CCCCCC2)s1)c1cccc(Br)c1`, with 7.09 µM. Then `CCN(CC)CCNC(=O)c1ccc2c(c1)NC(=O)c1ccccc1S2`, with 41.8 µM and 57.4 µM; and `COc1ccc(/C=C2/Sc3ccc(C(=O)NCCN4CCCCCC4)cc3NC2=O)cc1`, with > 80 µM (inactive). Then `COc1ccc(C(=O)Nc2nnc(S(=O)(=O)N3CCCCCC3)s2)cc1`, with 47.2 µM. Consider `CCOc1ccc(C(=O)Nc2nnc(S(=O)(=O)N3CCCCCC3)s2)cc1`, for which the 50% inhibitory concentration (IC50) was 23.8 µM. Then `COc1ccc(/C=C2/Sc3ccc(C(=O)NCCN(C)C)cc3NC2=O)cc1`, with > 80 µM (inactive). Then `CN(C)CCNC(=O)c1ccc2c(c1)NC(=O)/C(=C\c1cccc(Cl)c1)S2`, with 43.6 µM; and `CCN(CC)CCNC(=O)c1ccc2c(c1)NC(=O)/C(=C/c1ccccc1)S2`, with 18.4 µM; and `COc1cccc(C(=O)Nc2nnc(S(=O)(=O)N3CCCCCC3)s2)c1`, with 31.6 µM.

`O=C(Nc1nnc(S(=O)(=O)N2CCCCCC2)s1)c1ccccc1`: the IC50 is 13.3 µM. `CCN1CCCC1CNC(=O)c1ccc2c(c1)N(Cc1ccc(C(F)(F)F)cc1)C(=O)c1ccccc1S2` (configuration not stated): the IC50 is > 80 µM (inactive). Then `CCN1CCC[C@H]1CNC(=O)c1ccc2c(c1)NC(=O)/C(=C/c1ccccc1F)S2`, with 9.49 µM; and `CCN1CCCC1CNC(=O)c1ccc2c(c1)N(Cc1cccc(F)c1)C(=O)c1ccccc1S2` (configuration not stated), with > 80 µM (inactive). Then `O=C(NCCN1CCOCC1)c1ccc2c(c1)NC(=O)c1ccccc1O2`, with > 80 µM (inactive). Then `CCN1CCCC1CNC(=O)c1ccc2c(c1)N(Cc1ccccc1F)C(=O)c1ccccc1S2` (configuration not stated), with > 80 µM (inactive). `CN(CCNC(=O)c1ccc2c(c1)NC(=O)c1ccccc1S2)C1CCCCC1`: the IC50 was 28.6 µM.

Regarding `O=C1COc2ccc(C(=O)NCCN3CCOCC3)cc2N1`, the IC50 was > 80 µM (inactive).

In the case of `O=C1COc2ccc(C(=O)NCCN3CCCCC3)cc2N1`, the IC50 is 77 µM. Then `O=C(NCCN1CCCCC1)c1ccc2c(c1)NC(=O)c1ccccc1O2`, with 31.6 µM; and `CCN1CCCC1CNC(=O)c1ccc2c(c1)NC(=O)/C(=C/c1cccc3ccccc13)S2` (configuration not stated), with 4.2 µM; and `CCN1CCCC1CNC(=O)c1ccc2c(c1)NC(=O)/C(=C\c1ccccc1Cl)S2` (configuration not stated), with 3.32 µM. Then `CCN(CC)CCNC(=O)c1ccc2c(c1)NC(=O)CO2`, with > 80 µM (inactive); and `O=C(Nc1nnc(S(=O)(=O)N2CCCCCC2)s1)c1cccc(F)c1`, with 18.1 µM. With `CCN(CC)CCNC(=O)c1ccc2c(c1)NC(=O)/C(=C\c1ccccc1F)S2`, the IC50 is 9.37 µM. Then `COc1ccc(/C=C2/Sc3ccc(C(=O)NCCN4CCCC4)cc3NC2=O)cc1`, with > 80 µM (inactive); and `O=C(NCCN1CCCC1)c1ccc2c(c1)NC(=O)c1ccccc1O2`, with 35.6 µM; and `O=C1Nc2cc(C(=O)NCc3ccccc3)ccc2S/C1=C\c1ccccc1F`, with > 80 µM (inactive).

As to `O=C1Nc2cc(C(=O)NCCN3CCOCC3)ccc2S/C1=C\c1ccccc1F`, the IC50 is > 80 µM (inactive).

Take `O=C1Nc2cc(C(=O)NCCN3CCCCC3)ccc2S/C1=C\c1ccccc1F`: the IC50 is 24 µM.

Turning to `O=C1COc2ccc(C(=O)NCCN3CCCC3)cc2N1`, the IC50 was > 80 µM (inactive). Then `Cc1ccccc1C(=O)Nc1nnc(S(=O)(=O)N2CCCc3ccccc32)s1`, with 46.9 µM. Then `CCN(CC)CCNC(=O)c1ccc2c(c1)N(Cc1ccccc1Cl)C(=O)c1ccccc1S2`, with > 80 µM (inactive); and `Cc1cccc(C(=O)Nc2nnc(S(=O)(=O)N3CCCc4ccccc43)s2)c1`, with > 80 µM (inactive). For the compound `CCN1CCCC1CNC(=O)c1ccc2c(c1)NC(=O)c1ccccc1O2` (configuration not stated), the 50% inhibitory concentration (IC50) was 11.9 µM. Then `CCN1CCCC1CNC(=O)c1ccc2c(c1)NC(=O)c1ccccc1S2` (configuration not stated), with 8.01 µM and 6.42 µM; and `CCN1CCCC1CNC(=O)c1ccc2c(c1)NC(=O)/C(=C\c1ccccc1F)S2` (configuration not stated), with 3.17 µM. Then `Cc1ccc(CN2C(=O)c3ccccc3Sc3ccc(C(=O)NCCN(C)C)cc32)cc1`, with > 80 µM (inactive); and `Cc1ccc(C(=O)Nc2nnc(S(=O)(=O)N3c4ccccc4CC3C)s2)cc1` (configuration not stated), with > 80 µM (inactive); and `O=C(Nc1nnc(S(=O)(=O)N2CCCCCC2)s1)c1ccco1`, with 33.3 µM. Then `COc1ccccc1C(=O)Nc1nnc(S(=O)(=O)N2CCCCCC2)s1`, with 10 µM; and `Cc1cccc(C(=O)Nc2nnc(S(=O)(=O)N3c4ccccc4CC3C)s2)c1` (configuration not stated), with > 80 µM (inactive). `CCN(CC)CCNC(=O)c1ccc2c(c1)N(Cc1ccc(C)cc1)C(=O)c1ccccc1S2`: the IC50 was > 80 µM (inactive). Then `CCN(CC)CCNC(=O)c1ccc2c(c1)NC(=O)/C(=C\c1ccc(OC)cc1)S2`, with 12.5 µM; and `COc1cccc(/C=C2/Sc3ccc(C(=O)NCCN4CCCC4)cc3NC2=O)c1`, with 35.3 µM. Then `COc1cccc(/C=C2/Sc3ccc(C(=O)NCCN4CCCCCC4)cc3NC2=O)c1`, with 58.5 µM; and `CCN1CCCC1CNC(=O)c1ccc2c(c1)NC(=O)CO2` (configuration not stated), with 41.4 µM. Then `Cc1ccc(C(=O)Nc2nnc(S(=O)(=O)N3CCCCCC3)s2)cc1`, with 10.7 µM; and `CCC(C)N(CCNC(=O)c1ccc2c(c1)NC(=O)c1ccccc1S2)C1CCCCC1` (configuration not stated), with 4.02 µM.

Take `O=C(Nc1nnc(S(=O)(=O)N2CCCCCC2)s1)c1cccc(Cl)c1`: the IC50 is 20.3 µM. Then `CCN(CC)CCNC(=O)c1ccc2c(c1)NC(=O)/C(=C\c1ccc(OC)c(OC)c1)S2`, with 24.5 µM; and `CC1Cc2ccccc2N1S(=O)(=O)c1nnc(NC(=O)c2cccc(F)c2)s1` (configuration not stated), with 30.8 µM; and `CC1Cc2ccccc2N1S(=O)(=O)c1nnc(NC(=O)c2cccc(Br)c2)s1` (configuration not stated), with > 80 µM (inactive). Then `CCN(CC)CCNC(=O)c1ccc2c(c1)NC(=O)/C(=C\c1ccccc1Cl)S2`, with 44.9 µM; and `Cc1cccc(N2CCN(CCNC(=O)c3ccc4c(c3)NC(=O)c3ccccc3S4)CC2)c1C`, with 47.9 µM; and `Cc1cccc(/C=C2/Sc3ccc(C(=O)NCCN4CCCC4)cc3NC2=O)c1`, with 8.77 µM.

Consider `O=C(NCCN1CCCC1)c1ccc2c(c1)NC(=O)c1ccccc1S2`, for which the IC50 is 60.5 µM. Then `Cc1cccc(C(=O)Nc2nnc(S(=O)(=O)N3CCOCC3)s2)c1`, with 24.2 µM; and `Cc1cccc(C(=O)Nc2nnc(S(=O)(=O)N3CCC(C)CC3)s2)c1`, with 9.09 µM; and `CCN1CCCC1CNC(=O)c1ccc2c(c1)NC(=O)CS2` (configuration not stated), with > 80 µM (inactive).

For `O=C(Nc1nnc(S(=O)(=O)N2CCCCCC2)s1)c1ccc(F)cc1`, the 50% inhibitory concentration (IC50) is 43.9 µM. As for `O=C1Nc2cc(C(=O)NCCN3CCCCCC3)ccc2S/C1=C/c1ccccc1F`, the IC50 is 11 µM. Regarding `Cc1ccc(C(=O)Nc2nnc(S(=O)(=O)N3CCCc4ccccc43)s2)cc1`, the IC50 was 54.6 µM. Then `CCN(CCNC(=O)c1ccc2c(c1)N(Cc1cc(C)ccc1C)C(=O)c1ccccc1S2)c1ccccc1`, with 48.2 µM. Regarding `O=C1Nc2cc(C(=O)NCCN3CCCCCC3)ccc2S/C1=C/c1ccccc1Cl`, the IC50 is > 80 µM (inactive).

The values are drawn from PubChem BioAssay AID588593 (Sanford-Burnham Center for Chemical Genomics, 2011).
